Here are results for 33 compounds from patent publication US7589104B2, “Tricyclic-bridged piperidinyline derivatives as §-opioid modulators” (Janssen Pharmaceutica NV, priority 2004, dated 2009).

Each structure is given as a SMILES string. Like-named read-outs stand apart in the source and are kept apart here.

One assay addresses T1, mu opioid receptor (Rattus norvegicus, UniProt P33535).
T1 construct: Following incubation with the mu selective peptide ligand, ˜0.8 nM [^3H]DAMGO; from tissue; host or cells: forebrain of male Wistar rats (Charles River)
The experiment in a line: Rat Brain Mu Opioid Receptor Binding Assay.

Another assay deals with T2, delta opioid receptor (Rattus norvegicus, UniProt P33533).
T2 construct: from tissue; host or cells: forebrain of male Wistar rats (Charles River)
T2 sequence (P33533 whole entry): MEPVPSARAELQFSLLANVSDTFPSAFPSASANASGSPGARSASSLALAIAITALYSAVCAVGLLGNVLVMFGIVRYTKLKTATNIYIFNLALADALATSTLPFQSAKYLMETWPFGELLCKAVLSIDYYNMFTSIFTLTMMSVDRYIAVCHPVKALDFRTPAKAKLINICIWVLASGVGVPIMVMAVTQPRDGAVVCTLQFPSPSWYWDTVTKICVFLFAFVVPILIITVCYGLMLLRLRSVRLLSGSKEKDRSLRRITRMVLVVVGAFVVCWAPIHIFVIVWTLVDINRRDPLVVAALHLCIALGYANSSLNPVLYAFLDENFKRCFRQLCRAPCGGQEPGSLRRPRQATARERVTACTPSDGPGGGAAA
The assay can be described thus: Rat Brain Delta Opioid Receptor Binding Assay.

Setting [1] is: rat forebrain membranes, [3H]DAMGO, read-out: mu (Ki).
The mark [2] stands for this setting: rat forebrain membranes, [3H]DPDPE or [3H]naltrindole, read-out: delta (Ki).

T1 sequence (P33535 whole entry): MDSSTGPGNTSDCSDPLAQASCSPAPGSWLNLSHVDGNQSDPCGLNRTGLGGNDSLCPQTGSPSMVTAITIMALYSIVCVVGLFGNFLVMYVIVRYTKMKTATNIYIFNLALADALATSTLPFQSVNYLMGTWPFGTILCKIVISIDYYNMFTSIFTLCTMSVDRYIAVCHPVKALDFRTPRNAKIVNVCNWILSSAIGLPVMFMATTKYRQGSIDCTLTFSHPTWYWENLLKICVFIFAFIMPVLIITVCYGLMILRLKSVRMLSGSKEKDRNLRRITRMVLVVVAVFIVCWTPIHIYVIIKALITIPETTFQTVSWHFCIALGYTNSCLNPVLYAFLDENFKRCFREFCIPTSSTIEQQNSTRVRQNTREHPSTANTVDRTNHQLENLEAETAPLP

Regarding `COc1cccc2c1Oc1cc(-c3ccccc3NC(C)=O)ccc1C2C1CC2CCC(C1)N2` (stereo not drawn) [Compound 2l, N-{2-[9-(8-Aza-bicyclo[3.2.1]oct-3-yl)-5-methoxy-9H-xanthen-3-yl]-phenyl}-acetamide], the Ki came to 3700 nM on mu opioid receptor (setting [1]) and 180 nM on delta opioid receptor (setting [2]).
Take `c1cncc(-c2ccc3c(c2)Oc2ccccc2C3C2CC3CCC(C2)N3)c1` (stereo not drawn) [Compound 3b, 3-(3-Pyridin-3-yl-9H-xanthen-9-yl)-8-aza-bicyclo[3.2.1]octane]: the figures for the Ki on mu opioid receptor and on delta opioid receptor were 4440 nM and 3150 nM, respectively.
In the same order, the values of `O=C(c1ccc2c(c1)Oc1ccccc1C2C1CC2CCC(C1)N2)N1CCCC1` (stereo not drawn) [Compound 3g, [9-(8-Aza-bicyclo[3.2.1]oct-3-yl)-9H-xanthen-3-yl]-pyrrolidin-1-yl-methanone] are 7600 nM and 831 nM.
Taken in the same sequence, the figures for `CC(=O)Nc1ccccc1-c1ccc2c(c1)Oc1c(O)cccc1C2C1CC2CCC(C1)N2` (stereo not drawn) [Compound 3l, N-{2-[9-(8-Aza-bicyclo[3.2.1]oct-3-yl)-5-hydroxy-9H-xanthen-3-yl]-phenyl}-acetamide] were 20.4 nM and 1.55 nM.
In the same order, the values of `c1cncc(-c2ccc3c(c2)Oc2ccccc2C3C2CC3CCC(C2)N3Cc2ccoc2)c1` (stereo not drawn) [Compound 4b, 8-Furan-3-ylmethyl-3-(3-pyridin-3-yl-9H-xanthen-9-yl)-8-aza-bicyclo[3.2.1]-octane] are 556 nM and 29.2 nM.
For the compound `c1ccc2c(c1)Oc1cc(-c3ccoc3)ccc1C2C1CC2CCC(C1)N2` (stereo not drawn) [Compound 5b, 3-(3-Furan-3-yl-9H-xanthen-9-yl)-8-aza-bicyclo[3.2.1]octane], the Ki at mu opioid receptor was found to be 19700 nM; at delta opioid receptor, 3450 nM.
Taken in the same sequence, the figures for `c1ccc2c(c1)Oc1cc(-c3nnn[nH]3)ccc1C2C1CC2CCC(C1)N2` (stereo not drawn) [Compound 5j, 3-[3-(1H-Tetrazol-5-yl)-9H-xanthen-9-yl]-8-aza-bicyclo[3.2.1]octane] were 4780 nM and 477 nM.
Taken in the same sequence, the figures for `c1ccc2c(c1)Oc1cc(-c3ccsc3)ccc1C2C1CC2CCC(C1)N2` (stereo not drawn) [Compound 6b, 3-(3-Thiophen-3-yl-9H-xanthen-9-yl)-8-aza-bicyclo[3.2.1]octane] were 83200 nM and 5800 nM.
In the same order, the values of `CCN(CC)C(=O)c1ccc2c(c1)Oc1c(C)cccc1C2C1CC2CCC(C1)N2` (stereo not drawn) [Compound 6h, 9-(8-Aza-bicyclo[3.2.1]oct-3-yl)-5-methyl-9H-xanthene-3-carboxylic acid diethylamide] are 4700 nM and 73 nM.
`CCN(CC)C(=O)c1ccc2c(c1)Oc1c(Cl)cccc1C2C1CC2CCC(C1)N2` (stereo not drawn) [Compound 6i, 9-(8-Aza-bicyclo[3.2.1]oct-3-yl)-5-chloro-9H-xanthene-3-carboxylic acid diethylamide]: the Ki is more than 10000 nM at mu opioid receptor and 3350 nM at delta opioid receptor.
In the same order, the values of `CC(=O)Nc1ccccc1-c1ccc2c(c1)Oc1ccccc1C2C1CC2CCC(C1)N2` (stereo not drawn) [Compound 7b, N-{2-[9-(8-Aza-bicyclo[3.2.1]oct-3-yl)-9H-xanthen-3-yl]-phenyl}-acetamide] are 6380 nM and 426 nM.
Turning to `CCN(CC)C(=O)c1ccc2c(c1)Oc1c(-c3ccccc3)cccc1C2C1CC2CCC(C1)N2` (stereo not drawn) [Compound 7d, 9-(8-Aza-bicyclo[3.2.1]oct-3-yl)-5-phenyl-9H-xanthene-3-carboxylic acid diethylamide], the Ki at mu opioid receptor (setting [1]) stood at 8200 nM; at delta opioid receptor it was 91 nM.
For `CCN(CC)C(=O)c1ccc2c(c1)Oc1ccc(F)cc1C2C1CC2CCC(C1)N2` (stereo not drawn) [Compound 7e, 9-(8-Aza-bicyclo[3.2.1]oct-3-yl)-7-fluoro-9H-xanthene-3-carboxylic acid diethylamide], the results for the Ki at mu opioid receptor and on delta opioid receptor were 44000 nM and 294 nM, respectively.
In the case of `CCN(CC)C(=O)c1ccc2c(c1)Oc1ccc(Br)cc1C2C1CC2CCC(C1)N2` (stereo not drawn) [Compound 7f, 9-(8-Aza-bicyclo[3.2.1]oct-3-yl)-7-bromo-9H-xanthene-3-carboxylic acid diethylamide], the figures for the Ki on mu opioid receptor and at delta opioid receptor were 1750 nM and 174 nM, respectively.
Take `COc1cccc2c1Oc1cc(-c3cccnc3)ccc1C2C1CC2CCC(C1)N2` (stereo not drawn) [Compound 7k, 3-(5-Methoxy-3-pyridin-3-yl-9H-xanthen-9-yl)-8-aza-bicyclo[3.2.1]octane]: the Ki worked out at 7740 nM at mu opioid receptor (setting [1]) and 655 nM on delta opioid receptor (setting [2]).
For `c1ccc2c(c1)Oc1cc(-c3cnc4ccccc4c3)ccc1C2C1CC2CCC(C1)N2` (stereo not drawn) [Compound 8b, 3-[9-(8-Aza-bicyclo[3.2.1]oct-3-yl)-9H-xanthen-3-yl]-quinoline], the Ki came out at 27700 nM on mu opioid receptor and 4860 nM at delta opioid receptor.
In the case of `Oc1cccc2c1Oc1cc(-c3cccnc3)ccc1C2C1CC2CCC(C1)N2` (stereo not drawn) [Compound 8k, 9-(8-Aza-bicyclo[3.2.1]oct-3-yl)-6-pyridin-3-yl-9H-xanthen-4-ol], the Ki on mu opioid receptor was 27.2 nM; on delta opioid receptor, 9.61 nM.
`CCN(CC)C(=O)c1ccc2c(c1)Oc1ccccc1C2C1CC2CCC(C1)N2` (stereo not drawn) [Compound 9a, 9-(8-Aza-bicyclo[3.2.1]oct-3-yl)-9H-xanthene-3-carboxylic acid diethylamide]: the Ki worked out at 6450 nM on mu opioid receptor and 140 nM at delta opioid receptor.
Taken in the same sequence, the figures for `c1cncc(-c2ccc3c(c2)Oc2ccccc2C3C2CC3CCC(C2)N3Cc2cccs2)c1` (stereo not drawn) [Compound 9b, 3-(3-Pyridin-3-yl-9H-xanthen-9-yl)-8-thiophen-2-ylmethyl-8-aza-bicyclo[3.2.1]octane] were 1610 nM and 182 nM.
Taken in the same sequence, the figures for `c1ccc(CN2C3CCC2CC(C2c4ccccc4Oc4cc(-c5cccnc5)ccc42)C3)nc1` (stereo not drawn) [Compound 10b, 8-Pyridin-2-ylmethyl-3-(3-pyridin-3-yl-9H-xanthen-9-yl)-8-aza-bicyclo[3.2.1]octane] were 350 nM and 211 nM.
As for `c1ccc(CN2C3CCC2CC(C2c4ccccc4Oc4cc(-c5cccnc5)ccc42)C3)cc1` (stereo not drawn) [Compound 11b, 8-Benzyl-3-(3-pyridin-3-yl-9H-xanthen-9-yl)-8-aza-bicyclo[3.2.1]octane], the Ki on mu opioid receptor came to 955 nM; at delta opioid receptor, 70.4 nM.
Taken in the same sequence, the figures for `CCN(CC)C(=O)c1ccc2c(c1)Oc1ccccc1C2C1CC2CCC(C1)N2CCc1ccccc1` (stereo not drawn) [Compound 12a, 9-(8-Phenethyl-8-aza-bicyclo[3.2.1]oct-3-yl)-9H-xanthene-3-carboxylic acid diethylamide] were 667 nM and 200 nM.
Regarding `c1ccc(CCN2C3CCC2CC(C2c4ccccc4Oc4cc(-c5cccnc5)ccc42)C3)cc1` (stereo not drawn) [Compound 12b, 8-Phenethyl-3-(3-pyridin-3-yl-9H-xanthen-9-yl)-8-aza-bicyclo[3.2.1]octane], the Ki at mu opioid receptor is 293 nM; at delta opioid receptor, 794 nM.
Turning to `CCN(CC)C(=O)c1ccc2c(c1)Oc1ccccc1C2C1CC2CCC(C1)N2Cc1ccco1` (stereo not drawn) [Compound 13a, 9-(8-Furan-2-ylmethyl-8-aza-bicyclo[3.2.1]oct-3-yl)-9H-xanthene-3-carboxylic acid diethylamide], the Ki stood at 3020 nM at mu opioid receptor and 42 nM at delta opioid receptor.
As for `CC(=O)Nc1ccccc1-c1ccc2c(c1)Oc1ccccc1C2C1CC2CCC(C1)N2Cc1ccoc1` (stereo not drawn) [Compound 13b, N-{2-[9-(8-Furan-3-ylmethyl-8-aza-bicyclo[3.2.1]oct-3-yl)-9H-xanthen-3-yl]-phenyl}-acetamide], the Ki on mu opioid receptor amounted to 1490 nM; on delta opioid receptor, 38.7 nM.
As to `CC(=O)Nc1ccccc1-c1ccc2c(c1)Oc1ccccc1C2C1CC2CCC(C1)N2Cc1cccs1` (stereo not drawn) [Compound 14b, N-{2-[9-(8-Thiophen-2-ylmethyl-8-aza-bicyclo[3.2.1]oct-3-yl)-9H-xanthen-3-yl]-phenyl}-acetamide], the Ki on mu opioid receptor was 2150 nM; on delta opioid receptor, 78.1 nM.
`COc1cccc2c1Oc1cc(Br)ccc1C2C1CC2CCC(C1)N2` (stereo not drawn) [Compound 14k, 3-(3-Bromo-5-methoxy-9H-xanthen-9-yl)-8-aza-bicyclo[3.2.1]octane]: the Ki at mu opioid receptor worked out at 7380 nM; on delta opioid receptor, 2880 nM.
Consider `CC(=O)Nc1ccccc1-c1ccc2c(c1)Oc1ccccc1C2C1CC2CCC(C1)N2Cc1ccccn1` (stereo not drawn) [Compound 15b, N-{2-[9-(8-Pyridin-2-ylmethyl-8-aza-bicyclo[3.2.1]oct-3-yl)-9H-xanthen-3-yl]-phenyl}-acetamide], for which the Ki at mu opioid receptor turned out to be 947 nM; on delta opioid receptor, 102 nM.
In the case of `CCN(CC)C(=O)c1ccc2c(c1)Oc1ccccc1C2C1CC2CCC(C1)N2Cc1ncc[nH]1` (stereo not drawn) [Compound 16a, 9-[8-(1H-Imidazol-2-ylmethyl)-8-aza-bicyclo[3.2.1]oct-3-yl]-9H-xanthene-3-carboxylic acid diethylamide], the Ki at mu opioid receptor worked out at 2000 nM; on delta opioid receptor it was 114 nM.
As for `CC(=O)Nc1ccccc1-c1ccc2c(c1)Oc1ccccc1C2C1CC2CCC(C1)N2Cc1ccccc1` (stereo not drawn) [Compound 16b, N-{2-[9-(8-Benzyl-8-aza-bicyclo[3.2.1]oct-3-yl)-9H-xanthen-3-yl]-phenyl}-acetamide], the Ki on mu opioid receptor and on delta opioid receptor was more than 10000 nM each time.
Consider `CCN(CC)C(=O)c1ccc2c(c1)Oc1ccccc1C2C1CC2CCC(C1)N2C` (stereo not drawn) [Compound 17a, 9-(8-Methyl-8-aza-bicyclo[3.2.1]oct-3-yl)-9H-xanthene-3-carboxylic acid diethylamide], for which the Ki on mu opioid receptor and on delta opioid receptor was more than 10000 nM each time.
Consider `CC(=O)Nc1ccccc1-c1ccc2c(c1)Oc1ccccc1C2C1CC2CCC(C1)N2CCc1ccccc1` (stereo not drawn) [Compound 17b, N-{2-[9-(8-Phenethyl-8-aza-bicyclo[3.2.1]oct-3-yl)-9H-xanthen-3-yl]-phenyl}-acetamide], for which the Ki is 116 nM on mu opioid receptor (setting [1]) and 64.8 nM on delta opioid receptor.
In the case of `C=CCN1C2CCC1CC(C1c3ccccc3Oc3cc(-c4ccccc4NC(C)=O)ccc31)C2` (stereo not drawn) [Compound 18b, N-{2-[9-(8-Allyl-8-aza-bicyclo[3.2.1]oct-3-yl)-9H-xanthen-3-yl]-phenyl}-acetamide], the Ki on mu opioid receptor (setting [1]) stood at 3200 nM; at delta opioid receptor (setting [2]), 408 nM.
